Source: publication PMC8776094, “Reactive Oxygen Species Production Is Responsible for Antineoplastic Activity of Osmium, Ruthenium, Iridium and Rhodium Half-Sandwich Type Complexes with Bidentate Glycosyl Heterocyclic Ligands in Various Cancer Cell Models” (International Journal of Molecular Sciences, 2022)

How the values were obtained:
[1] = Determination of the distribution coefficients (logD), n-octanol/PBS; assay type: physicochemical; settings: n-octanol / PBS pH = 7.40, rt
Protocol: Before starting the experiments, n-octanol was saturated with an aqueous PBS solution (pH = 7.40) and vice versa. A solution of the appropriate complex (approximately 0.2–0.3 mg) in a mixture of 2.50 mL pre-saturated n-octanol and 2.50 mL pre-saturated PBS buffer was made, and the resulting mixture was then vigorously stirred for 3 days at rt. Based on our previous NMR stability experiments, this time is long enough to reach equilibrium among the various ionic complex species. Due to the lipophilic/hydrophilic features of the complexes, those with benzoyl protection could primarily be found in the n-octanol, while the complexes with O-peracetylated and O-deprotected ligands were in the aqueous PBS phase. The corresponding separated solution was centrifuged (ScanSpeed 406G instrument, 4000 RPM for 5 min) and the absorption of the ”stock solution” was determined (VWR UV-1600PC Spectrophotometer, 270–420 nm). Then, 2.00 mL of the stock solution was vigorously stirred with 16.00 mL of pre-saturated n-octanol or PBS solution. After one day had passed, the phases were separated, centrifuged, and the absorption of the solution was measured again. From the absorption difference of the stock solutions, the distribution coefficient (D) was determined using previously described formulae [71].

[2] = tested on: A2780 ovarian cancer cells; assay: SRB assay, 48 h, cytostasis, A2780; assay type: cell-based; settings: for A2780 Max. Inh. (%): ND = not detected; for cytostatic activity on A2780 cells in SRB assay (in words): 48 h treatment
Protocol: (§1) The compounds were tested between 0.001694 and 33.3333 µM, using a 4-hour-long MTT test to assess rapid toxicity and a 48-hour-long SRB assay to assess the long-term effects of the inhibition of proliferation (cytostasis). The MTT assay assesses the activity of mitochondrial complex I and detects rapid, direct toxicity, as well as indicating apoptosis and necrosis. The SRB assay measures the total protein content that is proportional to cell numbers; therefore, the assay can detect changes in cell numbers and can thus be used as a readout for cell proliferation. The SRB assay was performed after 48 h of treatment (with the exception of L428 cells, which were tested for 96 h due to their slower proliferation rate). In this setting, the SRB assay informs us of long-term changes to cell proliferation. We assessed the maximal inhibition within that concentration range, and descriptive statistics were performed. We performed a one-way ANOVA, followed by the Kruskal–Wallis test, regardless of the normal or non-normal distribution of the data. Due to the large number of significance values, the results of the significance calculations are provided in an Excel spreadsheet at https://figshare.com/s/28d14597d5041f08eb08 (accessed on 6 January 2022), among other primary data of the study. Where possible, nonlinear regression was performed on the curves to determine the IC50 values ((inhibitor) vs. response—variable slope (four parameters) method with Graphpad v8.0.1). […] In Table 5, we added the IC50 values that we determined for a set of 4 active ruthenium half-sandwich complexes we identified previously, to be used in subsequent structure-activity relationship (SAR) analyses.
(§2) A2780 cells were cultured in RMPI 1640 medium, supplemented with 10% fetal calf serum, 2 mM glutamine, and 1% penicillin-streptomycin.
(§3) The assay was performed similarly to the method used in [73]. Cells were seeded in 96-well plates the day before the assay. Cells were treated with the compounds for 48 h, with the exception of L428, where 96 h of treatment was applied. Cells were fixed with 10% trichloroacetic acid (TCA). Fixed cells were washed in distilled water 3 times, followed by staining with SRB (0.4 m/V% dissolved in 1% acetic acid) for 10 min. The stained cells were washed in 1% acetic acid 5 times; the acetic acid was removed, and the cells were left to dry. Protein-bound SRB was released by adding 100 µL 10 mM Tris base. Plates were measured in a plate photometer (Thermo Scientific Multiscan GO spectrophotometer, Waltham, MA, USA) at 540 nm. On each plate, wells were designed to contain untreated cells. In calculations, the readings for these wells were considered as 1 and all readings were expressed relative to these values.
(§4) Statistical analysis was performed using the 8.0.1 version of Graphpad Prism. Values were tested for normal distribution, using the d’Agostino and Pearson normality test. When necessary, values were log-normalized or were normalized using the Box-Cox normalization method or using a two-step transformation, as indicated in the figure captions. Nonlinear regression was performed using the built-in “[Inhibitor] vs. Response—Variable slope (four parameters), least-square fit” utility of Graphpad, yielding the IC50 and Hill slope values.

[3] = tested on: Capan2, a pancreatic adenocarcinoma cell line; assay: SRB assay, 48 h, cytostasis, Capan2; assay type: cell-based; settings: SRB assay, ND = not detected
Text: We turned next to assessing whether the cytostatic activity of Os-3, Os-4, Os-5, Os-6 and Ir-6 complexes is specific for ovarian cancer cell lines or if they may be active on other cell lines. To that end, we tested the complexes on another carcinoma cell line (Capan2, a pancreatic adenocarcinoma cell line), on a sarcoma cell line (Saos, an osteosarcoma cell line) and on a lymphoma cell line (L428, a Hodgkin’s lymphoma cell line).
Capan2 cells were maintained in MEM, 10% fetal bovine serum, 1% penicillin/streptomycin, and 2 mM glutamine.
as §3, §4
Here, 1.5 × 10^3 Capan2, 3 × 10^3 Saos cells and 10^4 L428 cells were plated onto 96-well plates. Capan2 and Saos cells were treated with the compounds in the concentrations indicated for 48 h for an SRB assay. L428 cells were treated with the compounds in the concentrations indicated for 96 h, then cells were counted using conventional microscopy and a Burker chamber. Data are represented as average ± SD, from three biological replicates; individual assays were performed in duplicate. Values were normalized for vehicle-treated cells; the absorbance for vehicle-treated cells is equal to 1. A one-way ANOVA, followed by a Kruskal–Wallis test, was performed individually for each compound. The results of the statistical analysis are presented in an Excel spreadsheet at https://figshare.com/s/28d14597d5041f08eb08 (accessed on 6 January 2022). Nonlinear regression was performed on the data.

[4] = tested on: ID8 ovarian cancer cell line; assay: MTT reduction assay, 4 h, rapid toxicity, ID8; assay type: cell-based; settings: MTT assay, 4 h treatment; ND = not detected or cannot be calculated
Protocol: as §1
(§5) ID8 cells were cultured in a high-glucose DMEM (4.5 g/L glucose) medium, supplemented with 4% fetal calf serum, 2 mM glutamine, 1% penicillin-streptomycin, and 1% ITS supplement (I3146).
(§6) The MTT reduction assay measures the activity of mitochondrial complex I and can be used to detect apoptosis and necrosis. The assay was performed similarly to the method used in [72]. Briefly, cells were plated in 96-well plates the day before the assay. Cells were treated with the compounds for 4 h, then MTT was added at 0.5 mg/mL final concentration and the cells were incubated at 37 °C in a cell incubator. The culture media were removed and the reduced MTT dye was dissolved in dimethyl-sulfoxide (DMSO) and plates were measured in a plate photometer (Thermo Scientific Multiscan GO spectrophotometer, Waltham, MA, USA) at 540 nm. On each plate, wells were designed to contain untreated/vehicle-treated cells. In the calculations, the readings for these wells were considered as 1 and all readings were expressed relative to these values.

[5] = tested on: ID8 ovarian cancer cell line; assay: SRB assay, 48 h, cytostasis, ID8; assay type: cell-based; settings: for ID8 Max. Inh. (%): SRB assay, 48 h, ND = not detected; for cytostatic activity on ID8 cells, SRB assay (in words): 48 h treatment
Protocol: as §1, §5, §3, §4

[6] = tested on: A2780 ovarian cancer cells; assay: MTT reduction assay, 4 h, rapid toxicity, A2780; assay type: cell-based; settings: 4 h treatment
Protocol: as §1, §2, §6

Molecule	LogD [1]	A2780 Max. Inh. (%) ([2]; SRB assay, 48 h)	further results
Cc1c(C)c(C)[c-](C)c1C.F[P-](F)(F)(F)(F)F.O=C(OCC1OC(c2noc(-c3ccccn3)n2)C(OC(=O)c2ccccc2)C(OC(=O)c2ccccc2)C1OC(=O)c1ccccc1)c1ccccc1.[Cl][Ir+2] (mixture of isomers) [Ir-1]	2.87	35.13	
Cc1c(C)c(C)[c-](C)c1C.F[P-](F)(F)(F)(F)F.OCC1OC(c2noc(-c3ccccn3)n2)C(O)C(O)C1O.[Cl][Ir+2] (mixture of isomers) [Ir-2]	−1.15	36.38	
Cc1c(C)c(C)[c-](C)c1C.F[P-](F)(F)(F)(F)F.O=C(OCC1OC(c2nnc(-c3ccccn3)o2)C(OC(=O)c2ccccc2)C(OC(=O)c2ccccc2)C1OC(=O)c1ccccc1)c1ccccc1.[Cl][Ir+2] (mixture of isomers) [Ir-3]	1.46	69.25	Capan2 Max. Inh. (%) [3]: 27.62%; Maximum Inhibition (%) ID8 [4]: 26.11%; cytostatic activity on A2780 cells in SRB assay (in words) [2]: mild
Cc1c(C)c(C)[c-](C)c1C.F[P-](F)(F)(F)(F)F.O=C(OCC1OC(c2nnc(-c3ccccn3)o2)C(OC(=O)c2ccccc2)C(OC(=O)c2ccccc2)C1OC(=O)c1ccccc1)c1ccccc1.[Cl][Ir+2] (mixture of isomers) [Ir-4]	1.46	32.45	
Cc1c(C)c(C)[c-](C)c1C.F[P-](F)(F)(F)(F)F.O=C(OC1COC(c2nnc(-c3ccccn3)o2)C(OC(=O)c2ccccc2)C1OC(=O)c1ccccc1)c1ccccc1.[Cl][Ir+2] (mixture of isomers) [Ir-5]	1.80	45.45	ID8 Max. Inh. (%) [5]: 53.15%
CC(=O)OCC1OC(c2nnc(-c3ccccn3)o2)C(OC(C)=O)C(OC(C)=O)C1OC(C)=O.Cc1c(C)c(C)[c-](C)c1C.F[P-](F)(F)(F)(F)F.[Cl][Ir+2] (mixture of isomers) [Ir-7]	−0.75	26.91	
Cc1c(C)c(C)[c-](C)c1C.F[P-](F)(F)(F)(F)F.OCC1OC(c2nnc(-c3ccccn3)o2)C(O)C(O)C1O.[Cl][Ir+2] (mixture of isomers) [Ir-8]	−1.60		
Cc1c(C)c(C)[c-](C)c1C.F[P-](F)(F)(F)(F)F.OCC1OC(c2nnc(-c3ccccn3)o2)C(O)C(O)C1O.[Cl][Ir+2] (mixture of isomers) [Ir-9]	−1.47	21.29	
Cc1c(C)c(C)[c-](C)c1C.F[P-](F)(F)(F)(F)F.OC1COC(c2nnc(-c3ccccn3)o2)C(O)C1O.[Cl][Ir+2] (mixture of isomers) [Ir-10]	−1.56	23.12	
CC(=O)OCC1OC(n2cc(-c3ccccn3)nn2)C(OC(C)=O)C(OC(C)=O)C1OC(C)=O.Cc1c(C)c(C)[c-](C)c1C.F[P-](F)(F)(F)(F)F.[Cl][Ir+2] (mixture of isomers) [Ir-11]		20.26	cytostatic activity on A2780 cells in SRB assay (in words) [2]: biologically inactive
Cc1c(C)c(C)[c-](C)c1C.F[P-](F)(F)(F)(F)F.OCC1OC(n2cc(-c3ccccn3)nn2)C(O)C(O)C1O.[Cl][Ir+2] (mixture of isomers) [Ir-12]		19.11	cytostatic activity on A2780 cells in SRB assay (in words) [2]: biologically inactive
Cc1c(C)c(C)[c-](C)c1C.F[P-](F)(F)(F)(F)F.O=C(OCC1OC(c2nnc(-c3ccccn3)o2)C(OC(=O)c2ccccc2)C(OC(=O)c2ccccc2)C1OC(=O)c1ccccc1)c1ccccc1.[Cl][Rh+2] (mixture of isomers) [Rh-3]	1.60	39.86	
Cc1c(C)c(C)[c-](C)c1C.F[P-](F)(F)(F)(F)F.O=C(OCC1OC(c2nnc(-c3ccccn3)o2)C(OC(=O)c2ccccc2)C(OC(=O)c2ccccc2)C1OC(=O)c1ccccc1)c1ccccc1.[Cl][Rh+2] (mixture of isomers) [Rh-4]	1.64	35.30	
Cc1c(C)c(C)[c-](C)c1C.F[P-](F)(F)(F)(F)F.O=C(OC1COC(c2nnc(-c3ccccn3)o2)C(OC(=O)c2ccccc2)C1OC(=O)c1ccccc1)c1ccccc1.[Cl][Rh+2] (mixture of isomers) [Rh-5]	1.8	51.28	Maximum Inhibition (%) ID8 [4]: 21.87%; cytostatic activity on ID8 cells, SRB assay (in words) [5]: mild cytostatic activity; ID8 Max. Inh. (%) [5]: 75.25%
Cc1c(C)c(C)[c-](C)c1C.F[P-](F)(F)(F)(F)F.O=C(OCC1OC(n2cc(-c3ccccn3)nn2)C(OC(=O)c2ccccc2)C(OC(=O)c2ccccc2)C1OC(=O)c1ccccc1)c1ccccc1.[Cl][Rh+2] (mixture of isomers) [Rh-6]	1.85	59	Maximum Inhibition (%) ID8 [4]: 28.28%; IC50 ([2]; SRB assay, 48 h): 25.3 µM; cytostatic activity on ID8 cells, SRB assay (in words) [5]: mild cytostatic activity; ID8 Max. Inh. (%) [5]: 43.70%
O=C(OC[C@H]1O[C@@H](c2noc(-c3ccccn3)n2)[C@H](OC(=O)c2ccccc2)[C@@H](OC(=O)c2ccccc2)[C@@H]1OC(=O)c1ccccc1)c1ccccc1 [Complex L-1, 3-(2′,3′,4′,6′-Tetra-O-benzoyl-β-D-glucopyranosyl)-5-(pyridin-2-yl)-1,2,4-oxadiazole]			toxicity on A2780 cells in short-term MTT assay (in words) [6]: practically inactive; cytostatic activity on A2780 cells in SRB assay (in words) [2]: practically inactive
dichloro(η^6-p-cymene)osmium(II) dimer [Os-dimer]			cytostatic activity on A2780 cells in SRB assay (in words) [2]: inactive; cytostatic activity on ID8 cells, SRB assay (in words) [5]: inactive
